Data: the NIST ThermoML archive (doi:10.1016/j.jct.2015.09.012)

What was measured:
[1] = molar heat capacity at constant pressure; conditions: Liquid
[2] = 298.15 K; 101.33 kPa; Liquid; Vibrating tube method
[3] = molar heat capacity at constant pressure; xn = mol fraction of the nth substance listed; conditions: 100 kPa, Liquid, Large sample (1 g) DSC

CC12CCC(CC1)C(C)(C)O2 [1,3,3-trimethyl-2-oxabicyclo[2.2.2]octane]
[1]
Conditions | molar heat capacity at constant pressure [J/K/mol]
293.26 K, 101.33 kPa, Small sample (50 mg) DSC | 266.9
303.48 K, 101.33 kPa, Small sample (50 mg) DSC | 273
304.7 K, 100 kPa, Large sample (1 g) DSC | 273.3
309.6 K, 100 kPa, Large sample (1 g) DSC | 276.4
313.71 K, 101.33 kPa, Small sample (50 mg) DSC | 279.5
314.6 K, 100 kPa, Large sample (1 g) DSC | 279.5
319.5 K, 100 kPa, Large sample (1 g) DSC | 282.6
323.93 K, 101.33 kPa, Small sample (50 mg) DSC | 285.2
324.5 K, 100 kPa, Large sample (1 g) DSC | 285.1
334.16 K, 101.33 kPa, Small sample (50 mg) DSC | 290.8
344.38 K, 101.33 kPa, Small sample (50 mg) DSC | 297.7

Conditions | mass density [kg/m3]
[2] | 920.51

CC12CCC(CC1)C(C)(C)O2 [1,3,3-trimethyl-2-oxabicyclo[2.2.2]octane] + CCO
molar heat capacity at constant pressure [J/K/mol], [3]
Conditions | 304.7 K | 309.6 K | 314.6 K | 319.5 K | 324.5 K
x1 = 0.0506 | 123.9 | 126.2 | 128.6 | 131.1 | 133.5
x1 = 0.099 | 132 | 134.6 | 137.1 | 139.7 | 142.1
x1 = 0.1999 | 149 | 151.8 | 154.6 | 157.1 | 160
x1 = 0.3007 | 166 | 169 | 171.8 | 174.9 | 177.7
x1 = 0.3956 | 181.7 | 184.9 | 188.1 | 191.1 | 194.1
x1 = 0.5002 | 199.4 | 202.5 | 205.5 | 208.5 | 211.3
x1 = 0.5975 | 214.3 | 217.4 | 221.5 | 224.5 | 227.4
x1 = 0.7017 | 231.6 | 235.1 | 238 | 241.2 | 244.1
x1 = 0.8065 | 247.2 | 250.5 | 253.6 | 256.7 | 259.3
x1 = 0.8964 | 259.8 | 263.7 | 267 | 269.9 | 272.5
x1 = 0.9501 | 267 | 269.9 | 273.4 | 275.8 | 279
x1 = 1 | 273.3 | 276.4 | 279.5 | 282.6 | 285.1

CCO [ethanol]
[1], 100 kPa, Large sample (1 g) DSC
Conditions | molar heat capacity at constant pressure [J/K/mol]
304.7 K | 115.3
309.6 K | 117.3
314.6 K | 119.6
319.5 K | 121.9
324.5 K | 124.2

Conditions | mass density [kg/m3]
[2] | 785.2

CCO [ethanol] + CC12CCC(CC1)C(C)(C)O2
[3], x2 = 0
Conditions | molar heat capacity at constant pressure [J/K/mol]
304.7 K | 115.3
309.6 K | 117.3
314.6 K | 119.6
319.5 K | 121.9
324.5 K | 124.2
